Reference: patent US20260041639A1, “GEPOTIDACIN FORMULATION” (GLAXOSMITHKLINE INTELLECTUAL PROPERTY DEVELOPMENT LIMITED, priority 2022, published 2026)
≈ marks a conversion by molar mass, not a printed value.

Test: Solubility of API in water
Type: physicochemical
Conditions: 25 °C
Description: The skilled reader will readily appreciate that the granules of the disclosure rapidly disperse. It is therefore apparent that the physical properties of the API and in particular its solubility will have no impact on the dispersion time.

Row | solubility [mg/mL] | SMILES
1 | 2.9 (≈ 7.15 mM) | C[C@H]1CO[C@@H]2Cn3cc(C(=O)NCc4ccc(F)cc4F)c(=O)c(O)c3C(=O)N12 [cabotegravir, (3R,6S)—N-[(2,4-difluorophenyl)methyl]-10-hydroxy-6-methyl-8,11-dioxo-4-oxa-1,7-diazatricyclo[7.4.0.03,7]trideca-9,12-diene-12-carboxamide]
2 | 175 (≈ 390 mM) | O=c1ccc2ncc(=O)n3c2n1C[C@H]3CN1CCC(NCc2cc3c(cn2)OCCC3)CC1 [gepotidacin, (2R)-2-({4-[(3,4-Dihydro-2H-pyrano[2,3-c]pyridin-6-ylmethyl)amino]-1-piperidinyl}methyl)-1,2-dihydro-3H,8H-2a,5,8a-triazaacenaphthylene-3,8-dione]
